How the values were obtained:
[1] = test system: human lung cancer strain NCI-H441; test: NCI-H441 cell proliferation inhibitory activity (CellTiter-Glo, 4 days); type: cell-based; settings: NCI-H441 cells, 4 days, read-out: NCl-H441 IC50
Summary of the method: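 Signal came from […] measured per well once the reagent was added. Beforehand, cells were cultured at 37°C and 5% carbon dioxide on a compound series serially diluted in dimethyl sulfoxide.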

[2] = biological target: GDP-bound NRAS wild-type protein (Homo sapiens, UniProt P01111); test: Binding to NRAS by surface plasmon resonance (SPR), KD and KD ratio to KRAS; settings: ratio of KD for GDP-bound NRAS wild-type protein to KD for KRAS
GDP-bound NRAS wild-type protein, sequence (P01111 whole entry): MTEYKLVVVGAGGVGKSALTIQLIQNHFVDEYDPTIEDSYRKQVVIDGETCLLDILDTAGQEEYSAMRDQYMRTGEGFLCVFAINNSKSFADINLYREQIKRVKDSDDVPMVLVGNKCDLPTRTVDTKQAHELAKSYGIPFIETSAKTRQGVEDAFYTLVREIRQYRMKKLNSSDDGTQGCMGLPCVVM
Summary of the method: (§1)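 Each cycle, GDP-bound biotin-Avi RAS was captured (~100–300 RU), compound concentrations were injected low to high for 75 s each at 100 µL/min, then the chip was regenerated. Buffer: HBS pH 7.4, 10 mM MgCl2, 10 µM GDP, 1 mM DTT, 4% DMSO; 30°C. KD from a 1:1 binding model.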

HRAS wild-type protein = HRAS wild-type protein (Homo sapiens, UniProt P01112); test: Binding to HRAS by surface plasmon resonance (SPR), KD and KD ratio to KRAS; settings: ratio of KD for HRAS wild-type protein to KD for KRAS
HRAS wild-type protein, sequence (P01112 whole entry): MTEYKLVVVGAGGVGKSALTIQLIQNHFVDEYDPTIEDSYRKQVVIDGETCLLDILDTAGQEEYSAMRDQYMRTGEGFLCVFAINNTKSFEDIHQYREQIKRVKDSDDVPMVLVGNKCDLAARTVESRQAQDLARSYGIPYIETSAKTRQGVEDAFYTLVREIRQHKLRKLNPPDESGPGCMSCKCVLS
Summary of the method: as §1

[3] = biological target: GDP-bound KRAS wild-type protein (Homo sapiens, UniProt P01116); test: Binding to KRAS by surface plasmon resonance (SPR), dissociation constant KD; settings: 1:1 binding model
GDP-bound KRAS wild-type protein, sequence (P01116 1-188 isoform P01116-2): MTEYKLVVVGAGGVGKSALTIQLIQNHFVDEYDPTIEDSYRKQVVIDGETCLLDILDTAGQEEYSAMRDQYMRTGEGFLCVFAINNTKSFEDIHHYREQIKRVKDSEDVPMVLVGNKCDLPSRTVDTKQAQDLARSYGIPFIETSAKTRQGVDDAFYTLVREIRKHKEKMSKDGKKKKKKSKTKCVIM
Summary of the method: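 Measured at 30°C: SPR with GDP-loaded, E. coli-expressed biotin-Avi RAS captured (~100–300 RU), ascending 75 s compound injections, HBS pH 7.4 with GDP, MgCl2, 4% DMSO. KD from 1:1 fit.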

Compound	IC50 [1] [nM]	NRAS /KRAS [2]	HRAS /KRAS (HRAS wild-type protein)	Kd [3] [nM]
CCC[C@H]1C(=O)N[C@@H]([C@@H](C)CC)C(=O)N(C2CC2)CC(=O)N(C)[C@H]2C/C=C\CCN(C2=O)[C@@H](Cc2ccc(C)cc2)C(=O)N(C)CC(=O)N[C@@H](CCc2ccc(Cl)c(Cl)c2)C(=O)N2C[C@H](OCC)C[C@H]2C(=O)NC2(CC(C)(C)C2)C(=O)N(C)[C@@H](CC(C)(C)C)C(=O)N(C)[C@H](C(=O)N(C)C)CC(=O)N1C [PP2726]	51	AA (a compound having 20 or more is denoted as AA)	A (a compound having 10 or more and less than 20 is denoted as A)	1.1
CCC[C@H]1C(=O)N[C@@H]([C@@H](C)CC)C(=O)N(C)CC(=O)N(C)[C@H]2C/C=C\CCN(C2=O)[C@@H](Cc2ccc(C(F)(F)F)cc2)C(=O)N(C)CC(=O)N[C@@H](CCc2ccc(Cl)c(Cl)c2)C(=O)N2C[C@H](OCC)C[C@H]2C(=O)NC2(CC(C)(C)C2)C(=O)N(C)[C@@H](CC(C)(C)C)C(=O)N(C)[C@H](C(=O)N(C)C)CC(=O)N1C [PP2738]	8.5	AA (a compound having 20 or more is denoted as AA)	A (a compound having 10 or more and less than 20 is denoted as A)	0.17
CCOC[C@H]1C(=O)N[C@@H]([C@@H](C)CC)C(=O)N(C)CC(=O)N(C)[C@H]2C/C=C\CCN(C2=O)[C@@H](Cc2ccc(C(F)(F)F)cc2)C(=O)N(C)CC(=O)N[C@@H](CCc2ccc(Cl)c(Cl)c2)C(=O)N2C[C@H](OCC)C[C@H]2C(=O)NC2(CC(C)(C)C2)C(=O)N(C)[C@@H](CC(C)(C)C)C(=O)N(C)[C@H](C(=O)N(C)C)CC(=O)N1C [PP2740]	24.2	AA (a compound having 20 or more is denoted as AA)	A (a compound having 10 or more and less than 20 is denoted as A)	0.17
CCC[C@H]1C(=O)N[C@@H]([C@@H](C)CC)C(=O)N(C2CC2)CC(=O)N(C)[C@H]2C/C=C\CCN(C2=O)[C@@H](Cc2ccc(C(F)(F)F)cc2)C(=O)N(C)CC(=O)N[C@@H](CCc2ccc(C(F)(F)F)c(OC)c2)C(=O)N2C[C@H](OCC)C[C@H]2C(=O)NC2(CC(C)(C)C2)C(=O)N(C)[C@@H](CC(C)(C)C)C(=O)N(C)[C@H](C(=O)N(C)C)CC(=O)N1C [PP2746]	10.2	A (a compound having 10 or more and less than 20 is denoted as A)	A (a compound having 10 or more and less than 20 is denoted as A)	0.28
CCO[C@@H]1C[C@H]2C(=O)NC3(CC(C)(C)C3)C(=O)N(C)[C@@H](CC(C)(C)C)C(=O)N(C)[C@H](C(=O)N(C)C)CC(=O)N(C)[C@@H](COC)C(=O)N[C@@H]([C@@H](C)CC)C(=O)N(C3CC3)CC(=O)N(C)[C@H]3C/C=C\CCN(C3=O)[C@@H](Cc3ccc(C(F)(F)F)cc3)C(=O)N(C)CC(=O)N[C@@H](CCc3ccc(C(F)(F)F)c(OC)c3)C(=O)N2C1 [PP2748]	7.1	A (a compound having 10 or more and less than 20 is denoted as A)	A (a compound having 10 or more and less than 20 is denoted as A)	0.2
CCC[C@H]1C(=O)N[C@@H]([C@@H](C)CC)C(=O)N(C)CC(=O)N(C)[C@H]2C/C=C\CCN(C2=O)[C@@H](Cc2ccc(C)cc2)C(=O)N(C)CC(=O)N[C@@H](CCc2cc(F)c(C(F)(F)F)c(F)c2)C(=O)N2C[C@H](OCC)C[C@H]2C(=O)NC2(CC(C)(C)C2)C(=O)N(C)[C@@H](CC2CCC2)C(=O)N(C)[C@H](C(=O)N(C)C)CC(=O)N1C [PP2751]	39.3	A (a compound having 10 or more and less than 20 is denoted as A)	A (a compound having 10 or more and less than 20 is denoted as A)	0.85
CCCOC[C@H]1C(=O)N[C@@H]([C@@H](C)CC)C(=O)N(C)CC(=O)N(C)[C@H]2C/C=C\CCN(C2=O)[C@@H](Cc2ccc(C)cc2)C(=O)N(C)CC(=O)N[C@@H](CCc2cc(F)c(C(F)(F)F)c(F)c2)C(=O)N2C[C@H](OCC)C[C@H]2C(=O)NC2(CC(C)(C)C2)C(=O)N(C)[C@@H](CC2CCC2)C(=O)N(C)[C@H](C(=O)N(C)C)CC(=O)N1C [PP2752]	70.3	A (a compound having 10 or more and less than 20 is denoted as A)	A (a compound having 10 or more and less than 20 is denoted as A)	1.2
CCC[C@H]1C(=O)N[C@@H]([C@@H](C)CC)C(=O)N(C)CC(=O)N(C)[C@H]2C/C=C\CCN(C2=O)[C@@H](Cc2ccc(C)cc2)C(=O)N(C)CC(=O)N[C@@H](CCc2ccc(C(F)(F)F)c(OC)c2)C(=O)N2C[C@H](OCC)C[C@H]2C(=O)NC2(CC(C)(C)C2)C(=O)N(C)[C@@H](CC2CCC2)C(=O)N(C)[C@H](C(=O)N(C)C)CC(=O)N1C [PP2753]	52	A (a compound having 10 or more and less than 20 is denoted as A)	B (a compound having 3 or more and less than 10 is denoted as B)	0.97
CCC[C@H]1C(=O)N[C@@H]([C@@H](C)CC)C(=O)N(C)CC(=O)N(C)[C@H]2C/C=C\CCN(C2=O)[C@@H](Cc2ccc(C)cc2)C(=O)N(C)CC(=O)N[C@@H](CCc2ccc(Cl)c(Cl)c2)C(=O)N2C[C@H](OCC)C[C@H]2C(=O)NC2(CC(C)(C)C2)C(=O)N(C)[C@@H](CC2CCC2)C(=O)N(C)[C@H](C(=O)N(C)C)CC(=O)N1C [PP2755]	35.7	A (a compound having 10 or more and less than 20 is denoted as A)	A (a compound having 10 or more and less than 20 is denoted as A)	0.56
CCOC[C@H]1C(=O)N[C@@H]([C@@H](C)CC)C(=O)N(C2CC2)CC(=O)N(C)[C@@H]2C/C=C\CCN(C2=O)[C@@H](Cc2ccc(C)cc2)C(=O)N(C)CC(=O)N[C@@H](CCc2ccc(C(F)(F)F)c(OC)c2)C(=O)N2C[C@H](OCC)C[C@@H]2C(=O)NC2(CC(C)(C)C2)C(=O)N(C)[C@H](CC2CCC2)C(=O)N(C)[C@H](C(=O)N(C)C)CC(=O)N1C [PP2760]	144	A (a compound having 10 or more and less than 20 is denoted as A)	B (a compound having 3 or more and less than 10 is denoted as B)	4.8
CCC[C@H]1C(=O)N[C@@H]([C@@H](C)CC)C(=O)N(C2CC2)CC(=O)N(C)[C@H]2C/C=C\CCN(C2=O)[C@@H](Cc2ccc(C)cc2)C(=O)N(C)CC(=O)N[C@@H](CCc2ccc(Cl)c(Cl)c2)C(=O)N2C[C@H](OCC)C[C@H]2C(=O)NC2(CC(C)(C)C2)C(=O)N(C)[C@@H](CC2CCC2)C(=O)N(C)[C@H](C(=O)N(C)C)CC(=O)N1C [PP2761]	68.4	A (a compound having 10 or more and less than 20 is denoted as A)	A (a compound having 10 or more and less than 20 is denoted as A)	2.8
CCOC[C@H]1C(=O)N[C@@H]([C@@H](C)CC)C(=O)N(C2CC2)CC(=O)N(C)[C@H]2C/C=C\CCN(C2=O)[C@@H](Cc2ccc(C)cc2)C(=O)N(C)CC(=O)N[C@@H](CCc2ccc(Cl)c(Cl)c2)C(=O)N2C[C@H](OCC)C[C@H]2C(=O)NC2(CC(C)(C)C2)C(=O)N(C)[C@@H](CC2CCC2)C(=O)N(C)[C@H](C(=O)N(C)C)CC(=O)N1C [PP2762]	122	A (a compound having 10 or more and less than 20 is denoted as A)	A (a compound having 10 or more and less than 20 is denoted as A)	2.9
CCOC[C@H]1C(=O)N[C@@H]([C@@H](C)CC)C(=O)N(C)CC(=O)N(C)[C@H]2C/C=C\CCN(C2=O)[C@@H](Cc2ccc(C(F)(F)F)cc2)C(=O)N(C)CC(=O)N[C@@H](CCc2cc(F)c(C(F)(F)F)c(F)c2)C(=O)N2C[C@H](OCC)C[C@H]2C(=O)NC2(CC(C)(C)C2)C(=O)N(C)[C@@H](CC2CCC2)C(=O)N(C)[C@H](C(=O)N(C)C)CC(=O)N1C [PP2763]	71.9	A (a compound having 10 or more and less than 20 is denoted as A)	A (a compound having 10 or more and less than 20 is denoted as A)	0.86
CCC[C@H]1C(=O)N[C@@H]([C@@H](C)CC)C(=O)N(C)CC(=O)N(C)[C@H]2C/C=C\CCN(C2=O)[C@@H](Cc2ccc(C(F)(F)F)cc2)C(=O)N(C)CC(=O)N[C@@H](CCc2ccc(C(F)(F)F)c(OC)c2)C(=O)N2C[C@H](OCC)C[C@H]2C(=O)NC2(CC(C)(C)C2)C(=O)N(C)[C@@H](CC2CCC2)C(=O)N(C)[C@H](C(=O)N(C)C)CC(=O)N1C [PP2764]	55.8	A (a compound having 10 or more and less than 20 is denoted as A)	A (a compound having 10 or more and less than 20 is denoted as A)	0.85

Source: patent EP4603105A1, “PHARMACEUTICAL COMPOSITION CONTAINING CYCLIC COMPOUND HAVING SELECTIVE KRAS INHIBITORY EFFECT AGAINST HRAS AND NRAS” (CHUGAI SEIYAKU KABUSHIKI KAISHA, priority 2022, dated 2024)
